Laboratory results as given in PubChem BioAssay (NCI).
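48-hour exposure; five concentrations; linearly interpolated endpoints. GI50 = concentration required for 50% inhibition of growth. TGI is the concentration that stops growth completely.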

Tests used:
Experiment in all cases: DTP human tumour cell line panel, 48 h
[1] = system: 786-0 renal
[2] = system: A498 renal
[3] = system: A549 NSCLC
[4] = system: ACHN renal
[5] = system: BT-549 breast
[6] = system: CAKI-1 renal
[7] = system: CCRF-CEM leukemia
[8] = system: COLO 205 colon
[9] = system: DU-145 prostate
[10] = system: EKVX NSCLC
[11] = system: HCC-2998 colon
[12] = system: HCT-116 colon
[13] = system: HCT-15 colon
[14] = system: HL-60(TB) leukemia
[15] = system: HOP-62 NSCLC
[16] = system: HOP-92 NSCLC
[17] = system: HS 578T breast
[18] = system: HT29 colon
[19] = system: IGROV1 ovarian
[20] = system: K-562 leukemia
[21] = system: KM12 colon
[22] = system: LOX IMVI melanoma
[23] = system: M14 melanoma
[24] = system: MALME-3M melanoma
[25] = system: MCF7 breast
[26] = system: MDA-MB-231 breast
[27] = system: MDA-MB-435
[28] = system: MOLT-4 leukemia
[29] = system: NCI-H226 lung
[30] = system: NCI-H23 lung
[31] = system: NCI-H460 lung
[32] = system: NCI-H522 lung
[33] = system: NCI/ADR-RES ovarian
[34] = system: OVCAR-3 ovarian
[35] = system: OVCAR-4 ovarian
[36] = system: OVCAR-5 ovarian
[37] = system: OVCAR-8 ovarian
[38] = system: PC-3 prostate
[39] = system: RPMI-8226 leukemia
[40] = system: RXF 393 renal
[41] = system: SF-268 CNS
[42] = system: SF-295 CNS
[43] = system: SF-539 CNS
[44] = system: SK-MEL-2 melanoma
[45] = system: SK-MEL-28 melanoma
[46] = system: SK-MEL-5 melanoma
[47] = system: SK-OV-3 ovarian
[48] = system: SN12C renal
[49] = system: SNB-19 CNS
[50] = system: SNB-75 CNS
[51] = system: SR leukemia
[52] = system: SW-620 colon
[53] = system: T-47D breast
[54] = system: TK-10 renal
[55] = system: U251 CNS
[56] = system: UACC-257 melanoma
[57] = system: UACC-62 melanoma
[58] = system: UO-31 renal

CS(=O)(=O)Nc1cc(-c2ccc3ncnc(Nc4ccc5c(cnn5Cc5ccccc5F)c4)c3c2)cnc1Cl
GI50 [1]: 1.84 µM | TGI [1]: > 100 µM | GI50 [2]: 1.05 µM | TGI [2]: 3.71 µM | GI50 [3]: 2.87 µM | TGI [3]: > 53.7 µM | GI50 [4]: 3.24 µM | TGI [4]: > 52.9 µM | GI50 [5]: 1.57 µM | TGI [5]: 8.73 µM | GI50 [6]: 1.71 µM | TGI [6]: 5.62 µM | GI50 [7]: 0.634 µM | TGI [7]: > 31.2 µM | GI50 [8]: 2.39 µM | TGI [8]: 9.09 µM | GI50 [9]: 2 µM | TGI [9]: > 38.2 µM | GI50 [10]: 1.69 µM | TGI [10]: 9.53 µM | GI50 [11]: 2.2 µM | TGI [11]: 8.46 µM | GI50 [12]: 2.08 µM | TGI [12]: > 33.7 µM | GI50 [13]: 3.28 µM | TGI [13]: 55 µM | GI50 [14]: 1.02 µM | TGI [14]: 6.02 µM | GI50 [15]: 0.457 µM | TGI [15]: > 100 µM | GI50 [16]: 0.131 µM | GI50 [17]: 0.249 µM | TGI [17]: 1.84 µM | GI50 [18]: 1.6 µM | TGI [18]: > 47.3 µM | GI50 [19]: 0.575 µM | TGI [19]: 4.31 µM | GI50 [20]: 2.27 µM | TGI [20]: > 100 µM | GI50 [21]: 2.48 µM | TGI [21]: 8.1 µM | GI50 [22]: 1.69 µM | TGI [22]: 4.71 µM | GI50 [23]: 2.66 µM | TGI [23]: 15.6 µM | GI50 [24]: 0.466 µM | TGI [24]: 3 µM | GI50 [25]: 1.48 µM | TGI [25]: 30.3 µM | GI50 [26]: 1.51 µM | TGI [26]: > 100 µM | GI50 [27]: 2.35 µM | TGI [27]: 8.32 µM | GI50 [28]: 1.54 µM | TGI [28]: 7.48 µM | GI50 [29]: 1.74 µM | TGI [29]: 11.3 µM | GI50 [30]: 2.81 µM | TGI [30]: > 100 µM | GI50 [31]: 2.1 µM | TGI [31]: 58 µM | GI50 [32]: 1.18 µM | TGI [32]: 8.03 µM | GI50 [33]: 8.32 µM | TGI [33]: > 100 µM | GI50 [34]: 0.795 µM | TGI [34]: 3.13 µM | GI50 [35]: 3 µM | TGI [35]: > 100 µM | GI50 [36]: 2.22 µM | TGI [36]: > 100 µM | GI50 [37]: 2.72 µM | TGI [37]: > 100 µM | GI50 [38]: 1.31 µM | TGI [38]: > 23.6 µM | GI50 [39]: 1.64 µM | TGI [39]: 4.18 µM | GI50 [40]: 1.41 µM | TGI [40]: 5.85 µM | GI50 [41]: 1.31 µM | TGI [41]: 9.18 µM | GI50 [42]: 1.96 µM | TGI [42]: 8.51 µM | GI50 [43]: 1.09 µM | TGI [43]: 4.9 µM | GI50 [44]: 1.52 µM | TGI [44]: 4.65 µM | GI50 [45]: 0.771 µM | TGI [45]: 6.59 µM | GI50 [46]: 1.76 µM | TGI [46]: 3.28 µM | GI50 [47]: 0.845 µM | TGI [47]: 3.96 µM | GI50 [48]: 1.13 µM | TGI [48]: > 100 µM | GI50 [49]: 1.77 µM | TGI [49]: > 55.5 µM | GI50 [50]: 0.157 µM | TGI [50]: 2.4 µM | GI50 [51]: 3.86 µM | TGI [51]: > 100 µM | GI50 [52]: 1.94 µM | TGI [52]: > 35.9 µM | GI50 [53]: 0.367 µM | TGI [53]: 3.14 µM | GI50 [54]: 1.28 µM | TGI [54]: 5.44 µM | GI50 [55]: 2.11 µM | TGI [55]: 14.4 µM | GI50 [56]: 1.51 µM | TGI [56]: 9 µM | GI50 [57]: 1.47 µM | TGI [57]: 5.37 µM | GI50 [58]: 3.23 µM | TGI [58]: > 100 µM

O=C(N/N=C\c1ccc(N(CCCl)CCCl)cc1Cl)c1cccnc1
GI50 [1]: 15.1 µM | TGI [1]: 56.6 µM | GI50 [2]: 0.0664 µM | TGI [2]: 0.179 µM | GI50 [3]: 7.57 µM | TGI [3]: 73.8 µM | GI50 [4]: 28.5 µM | TGI [4]: > 100 µM | GI50 [5]: 22.7 µM | TGI [5]: > 76 µM | GI50 [6]: 7.06 µM | TGI [6]: 48.2 µM | GI50 [7]: 14.5 µM | TGI [7]: > 90.6 µM | GI50 [8]: 8.5 µM | TGI [8]: 38.1 µM | GI50 [9]: 16.2 µM | TGI [9]: 59.6 µM | GI50 [10]: 22.6 µM | TGI [10]: > 83.6 µM | GI50 [11]: 17.2 µM | TGI [11]: 68.1 µM | GI50 [12]: 3.23 µM | TGI [12]: 36.6 µM | GI50 [13]: 29 µM | TGI [13]: > 100 µM | GI50 [14]: 7.5 µM | TGI [14]: 36.5 µM | GI50 [15]: 13.6 µM | TGI [15]: > 78 µM | GI50 [16]: 15.1 µM | TGI [16]: 69.1 µM | GI50 [17]: 31.7 µM | TGI [17]: > 94 µM | GI50 [18]: 20.2 µM | TGI [18]: > 88.4 µM | GI50 [19]: 1.5 µM | TGI [19]: 24.5 µM | GI50 [20]: 7.38 µM | TGI [20]: > 100 µM | GI50 [21]: 19.4 µM | TGI [21]: 64.3 µM | GI50 [22]: 16.1 µM | TGI [22]: 52.6 µM | GI50 [23]: 26.5 µM | TGI [23]: > 83.7 µM | GI50 [24]: 21.4 µM | TGI [24]: 64.2 µM | GI50 [25]: 1.39 µM | TGI [25]: > 82.6 µM | GI50 [26]: 14.1 µM | TGI [26]: 62.3 µM | GI50 [27]: 17.1 µM | TGI [27]: 46.1 µM | GI50 [28]: 10.5 µM | TGI [28]: 42.7 µM | GI50 [29]: 0.127 µM | TGI [29]: 0.604 µM | GI50 [30]: 9.59 µM | TGI [30]: 54.9 µM | GI50 [31]: 0.192 µM | TGI [31]: 12.7 µM | GI50 [32]: 21.4 µM | TGI [32]: 86 µM | GI50 [33]: 19.6 µM | TGI [33]: > 94.3 µM | GI50 [34]: 3.37 µM | TGI [34]: 14.3 µM | GI50 [35]: 5.28 µM | TGI [35]: 38.5 µM | GI50 [36]: 0.981 µM | TGI [36]: 11.3 µM | GI50 [37]: 21.7 µM | TGI [37]: > 88.8 µM | GI50 [38]: 19.2 µM | TGI [38]: > 100 µM | GI50 [39]: 12.2 µM | TGI [39]: 41.4 µM | GI50 [40]: 14.2 µM | TGI [40]: 51.9 µM | GI50 [41]: 23.4 µM | TGI [41]: > 84 µM | GI50 [42]: 0.565 µM | TGI [42]: 9.97 µM | GI50 [43]: 33.1 µM | TGI [43]: > 100 µM | GI50 [44]: 14.3 µM | TGI [44]: 53.3 µM | GI50 [45]: 26.5 µM | TGI [45]: > 100 µM | GI50 [46]: 13.3 µM | TGI [46]: 34.8 µM | GI50 [47]: 26.6 µM | TGI [47]: > 100 µM | GI50 [48]: 24.1 µM | TGI [48]: > 84.4 µM | GI50 [49]: 45.1 µM | TGI [49]: > 100 µM | GI50 [50]: 20.1 µM | TGI [50]: 73.7 µM | GI50 [51]: 7.23 µM | TGI [51]: 69.6 µM | GI50 [52]: 19.2 µM | TGI [52]: > 100 µM | GI50 [53]: 2.8 µM | TGI [53]: 20 µM | GI50 [54]: 0.991 µM | TGI [54]: 7.84 µM | GI50 [55]: 10.4 µM | TGI [55]: 94.1 µM | GI50 [56]: 1.08 µM | TGI [56]: 3.48 µM | GI50 [57]: 0.513 µM | TGI [57]: 3.92 µM | GI50 [58]: 14.6 µM | TGI [58]: 52.9 µM
